Measurements taken from patent US12415786B2, “Substituted 2-heteroarylaminobenzenes and the salts thereof and their use as herbicidal agents” (Bayer Aktiengesellschaft, priority 2019, dated 2025).

Columns and labels:
Type in all cases: in vivo
Setaria viridis [1] = assay: Herbicidal pre-emergence action (greenhouse pots), SETVI; conditions: 1280 g/ha, visual scoring after about 3 weeks vs untreated controls
How it was run: (§1)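 Sandy loam, seeds covered with soil; WP or EC formulation sprayed on soil surface, 600 L/ha water + 0.5% additive; rate 1280 g/ha; greenhouse ~3 wk; visual % effect vs untreated control.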

Setaria viridis [2] = assay: Herbicidal post-emergence action (greenhouse pots), SETVI; conditions: 1280 g/ha, rated after about 3 weeks, 100% = plants have died, 0% = like untreated control plants
From the text: (§2) In the examples and tables below, the following abbreviations are used: • Undesired Plants/Weeds: • ABUTH: Abutilon theophrasti • AGSTE: Agrostis tenuis • AMARE Amaranthus retroflexus • ECHCG: Echinochloa crus-galli • LOLRI: Lolium rigidum • MATIN: Matricaria inodora • POAAN: Poa annua • SETVI: Setaria viridis • STEME: Stellaria media A. Herbicidal Early Post-Emergence Action Seeds of mono- and dicotyledonous weed plants were placed in plastic pots in sandy loam soil (doubly sown with in each case one species of mono- or dicotyledonous weed plants per pot), covered with soil and cultivated in a greenhouse under controlled growth conditions. 2 to 3 weeks after sowing, the test plants were treated at the one-leaf stage. The compounds of the invention, formulated in the form of wettable powders (WP) or as emulsion concentrates (EC), were applied onto the green parts of the plants as aqueous suspension or emulsion with addition of 0.5% additive at a water application rate of 600 liters per hectare (converted). After the test plants had been kept in the greenhouse under optimum growth conditions for about 3 weeks, the activity of the preparations was rated visually in comparison to untreated controls. For example, 100% activity=the plants have died, 0% activity=like untreated control plants. Tables B1-B8 below show the effects of selected compounds of the general formula (I) according to Table 1 above on various harmful plants and an application rate corresponding to 1280 g/ha, which were obtained by the experimental procedure mentioned above.

Amaranthus retroflexus [3] = assay: Herbicidal pre-emergence action (greenhouse pots), AMARE; conditions: 1280 g/ha, visual scoring after about 3 weeks vs untreated controls
How it was run: as §1

Abutilon theophrasti [4] = assay: Herbicidal post-emergence action (greenhouse pots), ABUTH; conditions: 1280 g/ha, visual rating about 3 weeks after treatment vs untreated controls
From the text: as §2

Poa annua [5] = assay: Herbicidal pre-emergence action (greenhouse pots), POAAN; conditions: 1280 g/ha, visual scoring after about 3 weeks vs untreated controls
How it was run: as §1

Stellaria media [6] = assay: Herbicidal pre-emergence action (greenhouse pots), STEME; conditions: 1280 g/ha, visual scoring after about 3 weeks vs untreated controls
How it was run: as §1

Poa annua [7] = assay: Herbicidal early post-emergence action (96-well microtiter plates), POAAN; conditions: 1900 g/ha, scored 9 to 12 days after treatment, 100% = plants have died, 0% = like untreated control plants
How it was run: (§3)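 Weed seeds grown in quartz sand in 96-well microtiter plates in a climate chamber and treated at the cotyledon stage, 5 to 7 days after sowing, with EC formulations at 2200 L/ha water and a rate equivalent to 1900 g/ha. Visual scoring after 9 to 12 days against untreated controls (0% = control, 100% = dead).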

Matricaria inodora = assay: Herbicidal pre-emergence action (greenhouse pots), MATIN; conditions: 1280 g/ha, visual scoring after about 3 weeks vs untreated controls
From the text: (§4) In the examples and tables below, the following abbreviations are used: • Undesired Plants/Weeds: • ABUTH: Abutilon theophrasti • AGSTE: Agrostis tenuis • AMARE Amaranthus retroflexus • ECHCG: Echinochloa crus-galli • LOLRI: Lolium rigidum • MATIN: Matricaria inodora • POAAN: Poa annua • SETVI: Setaria viridis • STEME: Stellaria media A. Herbicidal Early Post-Emergence Action Seeds of mono- and dicotyledonous weed plants were placed in plastic pots in sandy loam soil (doubly sown with one species each of mono- or dicotyledonous weed plants per pot) and covered with soil. The compounds of the invention, formulated in the form of wettable powders (WP) or as emulsion concentrates (EC), were then applied onto the surface of the covering soil as aqueous suspension or emulsion with addition of 0.5% additive at a water application rate of 600 liters per hectare (converted). After the treatment, the pots were placed in a greenhouse and kept under good growth conditions for the test plants. After about 3 weeks, the effect of the preparations was scored visually in comparison with untreated controls as percentages. For example, 100% activity=the plants have died, 0% activity=like untreated control plants. Tables C1-C8 below show the effects of selected compounds of the general formula (I) according to Table 1 above on various harmful plants and an application rate corresponding to 1280 g/ha, which were obtained by the experimental procedure mentioned above.

Echinochloa crus-galli [8] = assay: Herbicidal pre-emergence action (greenhouse pots), ECHCG; conditions: 1280 g/ha, visual scoring after about 3 weeks vs untreated controls
From the text: as §4

Echinochloa crus-galli [9] = assay: Herbicidal post-emergence action (greenhouse pots), ECHCG; conditions: 1280 g/ha, rated after about 3 weeks, 100% = plants have died, 0% = like untreated control plants
From the text: as §2

Amaranthus retroflexus [10] = assay: Herbicidal post-emergence action (greenhouse pots), AMARE; conditions: 1280 g/ha, visual rating about 3 weeks after treatment vs untreated controls
How it was run: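 Activity is a visual percentage score (0% = like untreated controls, 100% = plants died) taken about 3 weeks after treatment. Plants grown in sandy loam under greenhouse conditions received 1280 g/ha onto green parts at the one-leaf stage, formulated as WP or EC with 0.5% additive.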

Lolium rigidum = assay: Herbicidal pre-emergence action (greenhouse pots), LOLRI; conditions: 1280 g/ha, visual scoring after about 3 weeks vs untreated controls
From the text: as §4

Stellaria media [11] = assay: Herbicidal post-emergence action (greenhouse pots), STEME; conditions: 1280 g/ha, visual rating about 3 weeks after treatment vs untreated controls
From the text: as §2

Agrostis tenuis = assay: Herbicidal early post-emergence action (96-well microtiter plates), AGSTE; conditions: 1900 g/ha, scored 9 to 12 days after treatment, 100% = plants have died, 0% = like untreated control plants
How it was run: as §3

Abutilon theophrasti [12] = assay: Herbicidal pre-emergence action (greenhouse pots), ABUTH; conditions: 1280 g/ha, visual scoring after about 3 weeks vs untreated controls
From the text: as §4

Poa annua [13] = assay: Herbicidal post-emergence action (greenhouse pots), POAAN; conditions: 1280 g/ha, visual rating about 3 weeks after treatment vs untreated controls
From the text: as §2

| Compound | herbicidal activity SETVI (Setaria viridis [1]) | SETVI (herbicidal activity, rated visually in comparison to untreated controls) (Setaria viridis [2]) | herbicidal activity AMARE (Amaranthus retroflexus [3]) | herbicidal activity ABUTH (Abutilon theophrasti [4]) | herbicidal activity POAAN (Poa annua [5]) | herbicidal activity STEME (Stellaria media [6]) | POAAN (herbicidal activity, scored visually in comparison to untreated controls) (Poa annua [7]) | herbicidal activity MATIN (Matricaria inodora) | herbicidal activity ECHCG (Echinochloa crus-galli [8]) | ECHCG (herbicidal activity, rated visually in comparison to untreated controls) (Echinochloa crus-galli [9]) | herbicidal activity AMARE (Amaranthus retroflexus [10]) | herbicidal activity LOLRI (Lolium rigidum) | herbicidal activity STEME (Stellaria media [11]) | AGSTE (herbicidal activity, scored visually in comparison to untreated controls) (Agrostis tenuis) | herbicidal activity ABUTH (Abutilon theophrasti [12]) | herbicidal activity POAAN (Poa annua [13]) |
| --- | --- | --- | --- | --- | --- | --- | --- | --- | --- | --- | --- | --- | --- | --- | --- | --- |
| N#Cc1cccc(Nc2ncccn2)c1Oc1ccc(F)c(F)c1 [Example 1-253] | 100% | 90% | 100% | 100% | 100% | 100% | 100% | 100% | 100% | 100% | 100% | 100% | 100% | 100% |  |  |
| N#Cc1ccc(Oc2c(C#N)cccc2Nc2ncccn2)cc1 [Example 1-261] | 100% |  | 100% |  | 100% | 100% | 80% | 100% | 100% |  | 100% |  |  | 80% | 100% |  |
| N#Cc1cccc(Nc2ncc(F)cn2)c1Oc1cccc(Cl)c1 [Example 1-268] |  |  | 90% |  |  |  | 80% |  |  |  | 90% |  |  | 100% | 90% |  |
| N#Cc1cccc(Nc2ncc(F)cn2)c1Oc1cccc(C(F)(F)F)c1 [Example 1-278] | 100% |  | 100% | 90% | 100% | 100% | 100% | 100% |  | 90% | 100% | 100% | 100% | 100% |  |  |
| N#Cc1cccc(Nc2ncc(F)cn2)c1Oc1ccc(C(F)(F)F)cc1 [Example 1-279] | 100% |  | 100% |  | 100% | 100% | 100% | 90% |  |  | 100% | 90% | 100% | 80% |  | 100% |
| N#Cc1ccc(Oc2c(C#N)cccc2Nc2ncc(F)cn2)cc1 [Example 1-280] | 100% |  | 100% |  | 100% | 100% | 100% | 100% | 100% |  | 100% |  | 100% | 100% | 100% |  |
| N#Cc1cccc(Nc2ncc(Cl)cn2)c1Oc1ccc(F)c(F)c1 [Example 1-291] | 100% | 100% | 100% | 100% | 100% | 100% | 100% | 100% | 90% | 100% | 100% | 100% | 100% | 100% |  | 100% |
| N#Cc1cccc(Nc2ncc(Cl)cn2)c1Oc1ccc(Cl)cc1F [Example 1-294] | 100% |  | 100% |  | 100% | 100% | 100% |  | 90% |  | 100% |  | 100% | 80% | 90% | 100% |
| N#Cc1ccc(Oc2c(C#N)cccc2Nc2ncc(Cl)cn2)cc1 [Example 1-299] | 100% | 90% | 100% |  | 100% | 100% | 100% |  |  |  | 100% | 90% | 100% | 80% |  |  |
| Cc1cnc(Nc2cccc(C#N)c2Oc2ccc(F)cc2)nc1 [Example 1-308] | 100% | 100% | 100% | 100% | 100% | 100% | 100% | 100% | 90% | 100% | 100% |  | 100% | 100% | 100% | 100% |
| N#Cc1cccc(Nc2ncc(Cl)cn2)c1Oc1ccc(Cl)nc1 [Example 3-56] | 100% | 100% | 100% | 100% | 100% | 100% | 100% | 100% | 100% | 100% | 100% |  | 100% | 100% | 100% | 100% |
